Measurements published in patent US20080166766A1, “Genetic incorporation of unnatural amino acids into proteins in mammalian cells” (The Scripps Research Institute, priority 2006, published 2008).

Experiments:
T-REx™ CHO cells = experiment: Yield of purified mutant GFP containing unnatural amino acid (pSWAN two-plasmid system); type: cell-based, Chinese hamster; details: pMpa 10 mM, pApa 10 mM, pBpa 1 mM, pAzpa 5 mM, pPpa 1 mM in media, anti-myc column purified
Description: The pMpaRS gene was inserted directly after the non-regulated CMV promoter for efficient and continuous expression of pMpaRS. Another plasmid (pSWAN-GFP37TAG in FIG. 4B) containing both three tandem repeats of the BstRNACUA^Tyr gene and the GFP37TAG gene was also constructed. The gene encoding GFP37TAG was inserted after a Tet-regulated CMV promoter to minimize potential read-through of the nonsense amber codon caused by endogenous amber suppression in mammalian cells. These two plasmids were then assayed for their suppression efficiency. Because both plasmids contain three tandem repeats of the BstRNACUA^Tyr gene, varying the ratio of the two plasmids to increase the suppression level is not expected to change the total amount of the BstRNACUA^Tyr gene transfected into cells. Under optimized transfection conditions (0.5 μg of pSWAN-pMpaRS and 2.5 μg pSWAN-GFP37TAG per 2×10^6 cells), the suppression level is roughly two-fold higher than that using the three plasmids pUC18-3BstRNACUA^Tyr, pcDNA4-pMpaRS, and pcDNA4-GFP37TAG (the suppression level was determined by the number of fluorescent cells). Cells were grown for 1-2 days after induction and kept viable before harvesting. The yield of mutant GFP containing pMpa (GFP-pMpa) was also quantified. In the presence of 10 mM pMpa in the growth media, 1 μg of mutant GFP can be obtained from 2×10^7 adhesive T-REx™ CHO cells.
Transient transfection of T-REx™ CHO and 293 cells with the pSWAN-EcTyrRS variants and pSWAN-GFP37TAG (0.5 μg of pSWAN-EcTyrRS variant and 2.5 μg of pSWAN-GFP37TAG per 2×10^6 cells) all afforded roughly two-fold higher suppression levels than for the three plasmids pUC18-3BstRNACUA^Tyr, pcDNA4-EcTyrRS variant, and pcDNA4-GFP37TAG (with the exception of the pIpa specific variant). Mutant GFPs containing pApa, pBpa, pAzpa or pPpa were also expressed in T-REx™ CHO cells transfected with the pSWAN-EcTyrRS variants and pSWAN-GFP37TAG and grown in media containing the corresponding unnatural amino acid (pApa, 10 mM; pBpa, 1 mM; pAzpa, 5 mM; or pPpa, 1 mM) for 1-2 days, and purified using an anti-myc antibody column. The yields of the mutant proteins containing pApa and pAzpa were close to that for pMpa (˜1 μg per 2×10^7 cells), and the yields of mutant proteins containing pBpa and pPpa were somewhat lower (˜0.7 μg per 2×10^7 cells). Because the expression levels of EcTyrRS variants in T-REx™ CHO cells are similar, the lower yield of the mutant proteins containing pBpa and pPpa may be due to the low concentrations of unnatural amino acids in the media.
pSWAN-EcTyrRS variants and pSWAN-GFP37TAG were used to express mutant GFPs containing unnatural amino acids. T-REx™ CHO cells (Invitrogen™) were grown in 75 cm^2 tissue culture flasks (BD Biosciences) to 80-90% confluency and transfected with 2 μg of pSWAN-EcTyrRS and 10 μg pSWAN-GFP37TAG using […] FuGENE® 6. After overnight incubation, the media were changed to the fresh media containing the unnatural amino acid (pMpa, 10 mM; pApa, 10 mM; pBpa, 1 mM; pAzpa, 5 mM; and pPpa, 1 mM) and 1 μg/ml tetracycline. Cells were then grown for 1-2 days at 37° C. before harvesting, and then lysed with RIPA lysis buffer. The supernatant from the cell lysate was dialyzed against and equilibrated with PBS buffer before loading onto an anti-myc antibody agarose column (Sigma). The column was washed with 15 column volumes of PBS buffer and then eluted with 0.1 M ammonium hydroxide. The purified proteins were neutralized with 0.1 M acetic acid and analyzed by SDS-PAGE. […]

position 37 of GFP = experiment: Fidelity of unnatural amino acid incorporation by mass spectrometry (nano-RP LC/MS/MS, ESI TOF-MS); details: for wild type peptide signals in tandem MS of mutant GFP sample: nano-RP LC/MS/MS of tryptic fragments, mutant GFP from T-REx CHO cells
Description: To further characterize GFP-pMpa, the mutant protein was expressed in T-REx™ CHO cells transiently transfected with both pSWAN-pMpaRS and pSWAN-GFP37TAG. The protein was purified using an anti-myc antibody agarose column and then separated by SDS-PAGE. The GFP-pMpa band from the SDS-PAGE gel was digested with trypsin and analyzed by nanoscale reversed-phase liquid chromatography/mass spectrometry/mass spectrometry (nano-RP LC/MS/MS). In parallel, wild type GFP was purified from cells transfected with pcDNA4-GFP and subjected to the same analysis.
Proteolysis of affinity purified proteins (performed for wild-type and pBpa samples) was carried out by overnight incubation of proteins at 37° C. with sequencing-grade modified trypsin (Promega) using a substrate/enzyme ratio of 10:1 (wt/wt) based on the estimated protein concentration in 100 mM triethylammonium bicarbonate buffer (pH 8.5). In-gel digestions (performed for pMpa, pAzpa, pApa, and pPpa samples) were performed according to a modified EMBL procedure (see the website for EMBL, Heidelberg, Germany, Bioanalytical Research Group). Briefly, gel slices were excised to approximately 1 mm×1 mm cubes, washed for 5 minutes with water, 15 minutes with acetonitrile, and dried in a vacuum centrifuge before being rehydrated at 0° C. for 30 minutes with 12.5 ng/μl of sequencing-grade modified trypsin in 50 mM triethylammonium bicarbonate buffer (pH 8.5). Excess buffer was removed and 20 μl of 50 mM triethylammonium bicarbonate buffer (pH 8.5) was added to the gel slices before incubating at 37° C. overnight. Peptides were extracted from the gel slices as described in the protocol.
Nano-RP LC/MS/MS was performed with an HPLC pump, autosampler (Agilent Technologies, Palo Alto, Calif.), and an LTQ Orbitrap hybrid mass spectrometer (ThermoElectron, San Jose, Calif.). Tryptic digests were loaded with a pressure bomb onto a 75 μm i.d. precolumn packed with 4 cm of 5-μm Monitor C18 particles (Column Engineering, Ontario, Calif.) at a flow rate of approximately 2 μl/min. The precolumn was then connected to the HPLC pump and after several minutes of washing with solvent A the analytical column with integrated emitter tip (360 μm O.D.×75 μm i.d; 10 cm of 5 μM C18, ˜5-μm tip) was connected in series. The chromatographic profile was from 100% solvent A (0.1% aqueous acetic acid) to 50% solvent B (0.1% acetic acid in acetonitrile) in 40 min; the flow rate through the analytical column was ca. 100 nl/min.
For data-dependent experiments, the mass spectrometer was programmed to first record a high-resolution Orbitrap scan then a full-scan ion trap spectrum (m/z 500-2,000). This was followed by 10 data-dependent MS/MS scans (relative collision energy=35%; 3-Da isolation window) triggered of the ion-trap scan and finally two targeted MS/MS scans. The first targeted MS/MS scan was set to isolate and fragment the doubly charged precursor ion of the predicted unnatural amino acid modified peptide
at m/z 752.3. The raw data were searched against the MSDB database using MASCOT (Matrixscience, London, UK) for protein identification and to find the scans containing the target peptides with the unnatural amino acids as variable modification. To estimate fidelity at Y*37 of GFP-pMpa, single ion chromatograms (doubly charged precursor ions at m/z 752.3 for the wt and 759.3 for pMpa) and selected ion chromatograms (y9, y11, and y12) were integrated using the Xcalibur software package (ThermoElectron, San Jose, Calif.).
Intact protein mass spectra were acquired on an automated LC/MS system (Waters, Milford, Mass.) consisting of a capillary LC with auto-sampler and a QTOF2 mass spectrometer. GFP-pMpa (0.1 mg/ml) was loaded onto a reversed-phase protein Captrap (Michrom Bioresources, Auburn, Calif.) for desalting with 0.1% acetic acid in water and eluted with 80% acetonitrile/0.1% acetic acid at 5 μl/min into the ESI source of the mass spectrometer. […]

[1] = system: Invitrogen™ T-REx™ CHO cells; experiment: Amber suppression of GFP37TAG: full-length GFP expression by Western blot in T-REx CHO cells; type: cell-based, Chinese hamster; details: BstRNACUA^Tyr + EcTyrRS variant, unnatural amino acid in media (plpa 8 mM), 24 hours
Description: (§1) The ability of the six EcTyrRS variants together with BstRNACUA^Tyr to suppress the amber codon in GFP37TAG was then tested in the presence and absence of unnatural amino acids in the growth media. Transient transfection of cells with plasmids was carried out as described for wild type EcTyrRS. Six hours after transfection, the media were replaced by the fresh media containing 1 μg/ml tetracycline and supplemented with the corresponding unnatural amino acid (pMpa, 10 mM; pApa, 10 mM; pBpa, 1 mM; plpa, 8 mM; pAzpa, 5 mM; or pPpa, 1 mM). Cells were then grown 24 hours for T-REx™ CHO cell lines and 48 hours for T-REx™ 293 cell lines before harvesting. In both T-REx™ CHO and 293 cells, the expression of full length GFP37TAG was dependent upon the presence of unnatural amino acids in the growth media as indicated in FIG. 2 and FIG. 3. […]
(§2) For Western blot analysis, harvested cells were lysed in RIPA buffer (Upstate Biotechnology/Millipore) with a 1:100 dilution of protease inhibitor cocktail (Sigma). […] Chemiluminescence was then detected with PIERCE ECL Western Blotting substrate. For T-REx™ 293 cells, the membranes were probed with anti-His-HRP (Invitrogen™; 1:5000 dilution) and then detected with PIERCE ECL Western Blotting substrate.

[2] = system: Invitrogen™ T-REx™ 293 cells; experiment: Amber suppression of GFP37TAG: full-length GFP expression by Western blot in T-REx 293 cells; type: cell-based, human; details: BstRNACUA^Tyr + EcTyrRS variant, unnatural amino acid in media (plpa 8 mM), 48 hours
Description: as §1, §2

T-REx™ 293 cells = experiment: Cellular toxicity of unnatural amino acid in growth media; type: cell-based; details: 8 mM in growth media

Compound	yield of mutant GFP containing the unnatural amino acid (T-REx™ CHO cells)	wild type peptide signals in tandem MS of mutant GFP sample (position 37 of GFP)	also measured
COc1ccc(C[C@H](N)C(=O)O)cc1 [pMpa, p-methoxyphenylalanine]	1 μg per 2×10^7 cells	–	purity estimate from the three most abundant fragment ions (y9, y11, y12) in tandem MS (position 37 of GFP; GFP-pMpa from T-REx CHO cells): 99.93%; fidelity for incorporation (integration of single ion chromatograms of precursor ions) (position 37 of GFP; GFP-pMpa from T-REx CHO cells, tryptic peptide […]*GK): > 99.9%; wild type GFP signals in intact protein ESI TOF-MS (position 37 of GFP; anti-myc purified GFP-pMpa, charge-state deconvoluted spectrum): No wild type GFP signals
CC(=O)c1ccc(C[C@H](N)C(=O)O)cc1 [pApa, p-acetylphenylalanine]	~1 μg per 2×10^7 cells	No wild type signals could be detected	–
C#CCOc1ccc(C[C@H](N)C(=O)O)cc1 [pPpa, p-propargyloxyphenylalanine]	~0.7 μg per 2×10^7 cells	No wild type signals could be detected	–
N[C@@H](Cc1ccc(I)cc1)C(=O)O [plpa, p-iodophenylalanine]	–	–	expression of full length GFP37TAG [1]: low expression level; expression of full length GFP37TAG [2]: no GFP expression; time until cells die (cellular toxicity) (T-REx™ 293 cells): 6 h
N[C@@H](Cc1ccc(C(=O)c2ccccc2)cc1)C(=O)O [pBpa, p-benzoylphenylalanine]	~0.7 μg per 2×10^7 cells	trace amount of the wild type peptide	–
